Drawing on patent publication US20250361230A1, “LATS Inhibitors and Uses Thereof” (The USA, as Represented by the Secretary, Dept. of Heath …, priority 2022, published 2025), this text covers IC50 for 22 compounds.

The target in one assay is AKT (Homo sapiens, UniProt P31749). As to the kind of experiment: RBC HotSpot kinase assay (33P-ATP, P81 filter-binding), AKT. In kind it is biochemical. The note with it: read-out: AKT IC50. In a few lines:
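Radiometric 33P-ATP kinase reaction in 20 mM Hepes pH 7.5, 10 mM MgCl2, 1 mM EGTA, 0.01% Brij35, 0.02 mg/ml BSA, 0.1 mM Na3VO4, 2 mM DTT, 1% DMSO. Compound preincubated with kinase and substrate 20 min, then 2 h at room temperature; P81 filter-binding read-out. IC50 (nM) from 10-point singlet curves.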

Assay [1] deals with T1, AKT Kinase-NanoLuc fusion in HEK-293 cells (Homo sapiens, UniProt P31749).
T1 construct: host or cells: HEK-293
Description: NanoBRET target engagement assay in transfected HEK-293 cells, AKT. It is filed as cell-based. To be noted: HEK-293 cells. The source says:
The NanoBRET™ assay measures kinase engagement in real time in the context of the intact cell. The assay uses a Kinase-NanoLuc® fusion vector expressing a kinase protein to which a luciferase tag has been added, a cell-permeant fluorescent NanoBRET™ tracer, a NanoLuc® substrate, and an extracellular NanoLuc® inhibitor. Upon expression of the luciferase-tagged kinase, cells will produce a strong BRET signal only in the presence of the NanoBRET™ tracer. The extracellular NanoLuc® inhibitor ensures that the BRET signal observed emanates only from live cells. Because the BRET signal has tight distance constraints, addition of the test compound will decrease the BRET signal if the compound competes with the NanoBRET™ tracer for binding to the kinase domain. Under the appropriate tracer conditions established by the manufacturer, quantitative intracellular affinity and relative potency can then be determined using Mass Action model equations.
HEK-293 cells were purchased from ATCC. FuGENEHD Transfection Reagent, Kinase-NanoLuc® fusion plasmids, Transfection Carrier DNA, NanoBRET™ Tracers and dilution buffer, NanoBRET™ Nano-Glo Substrate, Extracellular NanoLuc® Inhibitor were obtained from Promega.
Assays were conducted following Promega assay protocol with some modifications as described further below. HEK-293 Cells were transiently transfected with Kinase-NanoLuc® Fusion Vector DNA by FuGENE HD Transfection Reagent. Test compounds were delivered into 384 well assay plate by Echo 550 (Labcyte Inc, Sunnyvale, CA). Transfected cells were harvested and mixed with NanoBRET™ Tracer Reagent and dispensed into 384 well plates and incubated at 37° C. in 5% CO2 cell culture incubator for 1 hour. The NanoBRET™ Nano-Glo Substrate plus Extracellular NanoLuc® Inhibitor Solution were added into the wells of the assay plate and incubated for 2-3 minutes at room temperature. The donor emission wavelength (460 nm) and acceptor emission wavelength (600 nm) were measured in the EnVision plate reader. The BRET Ratios were calculated. BRET Ratio=[(Acceptor sample÷Donor sample)−(Acceptor no-tracer control÷Donor no-tracer control)]. The IC50 values of compounds were calculated with Prism GraphPad program.
• 1. Transient Transfection of HEK-293 Cells NanoLuc® Fusion Vector DNA • 1). Cultivate HEK-293 cells (70-80% confluence) appropriately prior to assay. Trypsinize and collect HEK-293 cells. • 2). Prepare lipid: DNA complexes as follows: • a. Prepare a […] solution of DNA in Opti-MEM™ without serum that consists of the following ratios of carrier DNA and DNA encoding NanoLuc® fusion. 9.0 µg/mL of Transfection Carrier DNA, […] of NanoLuc® fusion vector DNA and 1 mL of Opti-MEM™ without phenol red. Mix thoroughly. • b. Add 30 μl of FuGENE HD Transfection Reagent into each milliliter of DNA mixture to form lipid: DNA complex. • c. Mix by inversion 10 times. • d. Incubate at ambient temperature for 20 minutes to allow complexes to form. • 3). In a sterile, conical tube, mix 1 part of lipid: DNA complex with 20 parts of HEK-293 cells in suspension. Mix gently by inversion 5 times. • 4). Dispense cells+lipid: DNA complex into a sterile tissue culture dish and incubate for 22-24 hours. • 2. Addition of Test Compounds (dry plate shooting): Each test compound is delivered from the compound source plate to the wells of 384-well white NBS plate by Echo 550. • 3. Preparation of Cells with NanoBRET™ Tracer Reagent • 1). Remove medium from dish with transfected HEK-293 cells via aspiration, trypsinize and allow cells to dissociate from the dish. • 2). Neutralize trypsin using medium containing serum and centrifuge at 200× g for 5 minutes to pellet the cells. Adjust the cell density to 2×10^5 cells/mL in Opti-MEM™ without phenol red. • 3). Prepare Complete 20× NanoBRET™ Tracer Reagent with Tracer Dilution Buffer. • 4). Dispense one part of Complete 20× NanoBRET™ Tracer Reagent to 20 parts of cells in the tube. Mix gently by inversion 10 times. • 5). […]
For orientation: Bioluminescence resonance energy transfer reports proximity on the nanometre scale.

Setting [2] is: Table 28, biochemical kinase assay.
Where [3] appears, read: Table 28, NanoBRET, read-out: AKT1 (Cellular) IC50.
The mark [4] stands for this setting: Table 32, biochemical kinase assay.
Setting [5] is: Table 32, NanoBRET, read-out: AKT (Cellular) IC50.

Read-outs that look alike come from different tables or passages of the source. A value given as a limit tells only on which side of the number the result lay.

Chain of AKT (P31749 whole entry): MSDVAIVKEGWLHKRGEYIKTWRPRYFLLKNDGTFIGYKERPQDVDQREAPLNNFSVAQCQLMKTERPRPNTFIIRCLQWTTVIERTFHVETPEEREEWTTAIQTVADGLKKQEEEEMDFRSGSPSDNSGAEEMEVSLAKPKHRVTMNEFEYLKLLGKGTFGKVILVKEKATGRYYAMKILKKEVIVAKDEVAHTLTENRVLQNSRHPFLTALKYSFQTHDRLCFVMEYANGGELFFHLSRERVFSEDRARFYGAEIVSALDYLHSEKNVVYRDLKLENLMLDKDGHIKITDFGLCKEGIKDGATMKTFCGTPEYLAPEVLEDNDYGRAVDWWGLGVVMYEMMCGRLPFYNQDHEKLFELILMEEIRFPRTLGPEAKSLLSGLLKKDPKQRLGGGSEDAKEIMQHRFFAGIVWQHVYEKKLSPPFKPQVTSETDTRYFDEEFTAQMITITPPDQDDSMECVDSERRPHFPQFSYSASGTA
T1 sequence (P31749 whole entry, the tested form may be a part): as the sequence (P31749 whole entry) above

The term IC50 denotes the concentration at which inhibition is half-maximal. With `NCc1ccc(-c2ccnc3[nH]cc(-c4ccccc4)c23)cc1` [Compound 253, (4-(3-phenyl-1H-pyrrolo[2,3-b]pyridin-4-yl)phenyl) methanamine], the IC50 on AKT (setting [2]) is 983 nM; in assay [1] (setting [3]), 0.338 µM.
For `Cc1cc(-c2ccnc3[nH]cc(Cl)c23)ccc1CN` [Compound 254, (4-(3-chloro-1H-pyrrolo[2,3-b]pyridin-4-yl)-2-methylphenyl) methanamine], in that order: 116 nM and 3.91 µM.
For `Cc1cc(-c2ccnc3[nH]ccc23)ccc1CN` [Compound 266, (2-methyl-4-(1H-pyrrolo[2,3-b]pyridin-4-yl)phenyl) methanamine], in that order: 249 nM and above 50 µM.
The corresponding values for `c1cc(-c2ccc3c(c2)CCNC3)c2cc[nH]c2n1` [Compound 267, 6-(1H-pyrrolo[2,3-b]pyridin-4-yl)-1,2,3,4-tetrahydroiso-quinoline] are 308 nM and 17.3 µM.
With `c1cc(-c2ccc(C3CCCCN3)cc2)c2cc[nH]c2n1` (centres unmarked) [Compound 271, 4-(4-(piperidin-2-yl)phenyl)-1H-pyrrolo[2,3-b]pyridine], the IC50 on AKT (setting [2]) was 428 nM; in assay [1] (setting [3]), 14.5 µM.
For `NCc1ccc(-c2ccnc3[nH]cc(F)c23)cc1` [Compound 275, (4-(3-fluoro-1H-pyrrolo[2,3-b]pyridin-4-yl)phenyl) methanamine], in that order: 266 nM and 2.06 µM.
For `NCc1ccc(-c2ccnc3[nH]cc(Cl)c23)cc1` [Compound 276, (4-(3-chloro-1H-pyrrolo[2,3-b]pyridin-4-yl)phenyl) methanamine], in that order: 167 nM and 4.14 µM.
In the case of `NCc1ccc(-c2ccnc3[nH]ccc23)cc1C(F)(F)F` [Compound 284, (4-(1H-pyrrolo[2,3-b]pyridin-4-yl)-2-(trifluoromethyl)phenyl) methanamine], the IC50 at AKT (setting [2]) is 1150 nM; in assay [1] (setting [3]), above 50 µM.
For `NCc1ccc(-c2ccnc3[nH]ccc23)cc1` [Compound 287, (4-(1H-pyrrolo[2,3-b]pyridin-4-yl)phenyl) methanamine], in that order: 1030 nM and above 50 µM.
For `Cc1cc(-c2ccnc3[nH]cc(F)c23)cc(F)c1[C@@]1(O)[C@H](C)CN(C)C[C@@H]1C` [Compound 304, (3S,4s,5R)-4-(2-fluoro-4-(3-fluoro-1H-pyrrolo[2,3-b]pyridin-4-yl)-6-methylphenyl)-1,3,5-trimethylpiperidin-4-ol], in that order: 271 nM and 26 µM.
The corresponding values for `Cc1cc(-c2ccnc3[nH]cc(F)c23)cc(F)c1[C@@]1(O)[C@H](C)CN(C(C)C)C[C@@H]1C` [Compound 305, (3S,4s,5R)-4-(2-fluoro-4-(3-fluoro-1H-pyrrolo[2,3-b]pyridin-4-yl)-6-methylphenyl)-1-isopropyl-3,5-dimethylpiperidin-4-ol] are 758 nM and 29.4 µM.
Regarding `COC(=O)c1c[nH]c2nccc(-c3cc(C)c([C@@]4(O)[C@H](C)CN(C5CCS(=O)(=O)CC5)C[C@@H]4C)c(F)c3)c12` [Compound 309, methyl 4-(4-((3S,4s,5R)-1-(1,1-dioxidotetrahydro-2H-thiopyran-4-yl)-4-hydroxy-3,5-dimethylpiperidin-4-yl)-3-fluoro-5-methylphenyl)-1H-pyrrolo[2,3-b]pyridine-3-carboxylate], the values for the IC50 (at AKT (setting [2]); in assay [1] (setting [3])) were 2270 nM and 39.9 µM, respectively.
For the compound `COC(=O)c1c[nH]c2nccc(-c3cc(C)c([C@@]4(O)[C@H](C)CN(C(=O)CN)C[C@@H]4C)c(F)c3)c12` [Compound 310, methyl 4-(3-fluoro-4-((3S,4s,5R)-1-glycyl-4-hydroxy-3,5-dimethylpiperidin-4-yl)-5-methylphenyl)-1H-pyrrolo[2,3-b]pyridine-3-carboxylate], the half-inhibitory concentration (IC50) came to 4420 nM on AKT (setting [2]) and 49.4 µM in assay [1] (setting [3]).
For `Cc1cc(-c2ccnc3[nH]cc(F)c23)cc(F)c1[C@@]1(O)[C@H](C)CN(C(=O)[C@H](N)CO)C[C@@H]1C` [Compound 312, (R)-2-amino-1-((3S,4R,5R)-4-(2-fluoro-4-(3-fluoro-1H-pyrrolo[2,3-b]pyridin-4-yl)-6-methylphenyl)-4-hydroxy-3,5-dimethylpiperidin-1-yl)-3-hydroxypropan-1-one], in that order: 153 nM and 12.8 µM.
The corresponding values for `Cc1cc(-c2ccnc3[nH]cc(F)c23)cc(F)c1[C@@]1(O)[C@H](C)CN(C(=O)[C@@H](CO)N(C)C)C[C@@H]1C` [Compound 313, (R)-2-(dimethylamino)-1-((3S,4S,5R)-4-(2-fluoro-4-(3-fluoro-1H-pyrrolo[2,3-b]pyridin-4-yl)-6-methylphenyl)-4-hydroxy-3,5-dimethylpiperidin-1-yl)-3-hydroxypropan-1-one] are 312 nM and 19.2 µM.
Turning to `OC1(c2ccc(-c3ccnc4[nH]cc(F)c34)cc2)CC2(CNC2)C1` [Compound 319, 6-(4-(3-fluoro-1H-pyrrolo[2,3-b]pyridin-4-yl)phenyl)-2-azaspiro[3.3]heptan-6-ol], the figures for the half-inhibitory concentration (IC50) (on AKT (setting [2]); in assay [1] (setting [3])) were 378 nM and 44.8 µM, respectively.
Consider `NCC(O)(c1ccc(Cl)cc1)c1ccc(-c2ccnc3[nH]ccc23)cc1` (centres unmarked) [Compound 1001, 1-(4-(1H-pyrrolo[2,3-b]pyridin-4-yl)phenyl)-2-amino-1-(4-chlorophenyl)ethan-1-ol], for which the IC50 on AKT (setting [4]) is 0.6 nM; in assay [1] (setting [5]), 0.042 µM.
For `NCC(O)(c1ccc(Cl)cc1)c1ccc(-c2ccnc3[nH]cc(F)c23)cc1` (centres unmarked) [Compound 1002, 2-amino-1-(4-chlorophenyl)-1-(4-(3-fluoro-1H-pyrrolo[2,3-b]pyridin-4-yl)phenyl)ethan-1-ol], in that order: 4.6 nM and 0.027 µM.
The corresponding values for `COC(=O)c1c[nH]c2nccc(-c3ccc(C(O)(CN)c4ccc(Cl)cc4)cc3)c12` (centres unmarked) [Compound 1004, Methyl 4-(4-(2-amino-1-(4-chlorophenyl)-1-hydroxyethyl)phenyl)-1H-pyrrolo[2,3-b]pyridine-3-carboxylate] are 18.1 nM and 0.548 µM.
For `NCC(O)(c1ccc(Cl)cc1)c1ccc(-c2ccnc3[nH]cc(Br)c23)cc1` (centres unmarked) [Compound 1005, 2-amino-1-(4-(3-bromo-1H-pyrrolo[2,3-b]pyridin-4-yl)phenyl)-1-(4-chlorophenyl)ethan-1-ol], in that order: 1.7 nM and 0.0029 µM.
Consider `NCC(O)(c1ccc(Cl)cc1)c1ccc(-c2ccnc3[nH]cc(-c4ccccc4)c23)cc1` (centres unmarked) [Compound 1006, 2-amino-1-(4-chlorophenyl)-1-(4-(3-phenyl-1H-pyrrolo[2,3-b]pyridin-4-yl)phenyl)ethan-1-ol], for which the IC50 is 230 nM on AKT (setting [4]) and 0.135 µM in assay [1] (setting [5]).
For `NCC(O)(c1ccc(Cl)cc1)c1ccc(-c2ccnc3[nH]cc(-c4cccnc4)c23)cc1` (centres unmarked) [Compound 1007, 2-amino-1-(4-chlorophenyl)-1-(4-(3-(pyridin-3-yl)-1H-pyrrolo[2,3-b]pyridin-4-yl)phenyl)ethan-1-ol], in that order: 35.2 nM and 0.153 µM.
